The test in a line: Inhibition of BCL-XL (unknown origin) expressed in mcl-1 deficient MEF assessed as induction of cell killing incubated for 48 hrs in presence of 10% FBS by Cell titerGlo reagent based assay. On the technique in general: Cellular ATP, detected with luciferase, serves as a proxy for viable cell number.
Turning to `O=C(Nc1nc2ccccc2s1)c1cccc2c1CN(c1nc(C(=O)O)c(CCCOc3cccc(-n4ncc5cncnc54)c3)s1)CC2`, the EC50 (as a rule, the concentration that produces a half-maximal response) was > 5000 nM. The value for `O=C(Nc1nc2ccccc2s1)c1cccc2c1CN(c1nc(C(=O)O)c(CCOc3cccc(-n4ncc5cncnc54)c3)s1)CC2` was > 5000 nM; that for `CN1CCN(CCCNc2ncnc3c2cnn3-c2ccc(OCCCc3sc(N4CCc5cccc(C(=O)Nc6nc7ccccc7s6)c5C4)nc3C(=O)O)cc2)CC1` was 20 nM; that for `CN(C)CCCNc1ncnc2c1cnn2-c1ccc(OCCCc2sc(N3CCc4cccc(C(=O)Nc5nc6ccccc6s5)c4C3)nc2C(=O)O)cc1` was 10 nM.

For `O=C(Nc1nc2ccccc2s1)c1cccc2c1CN(c1nc(C(=O)O)c(CCCOc3ccc(-n4cccn4)cc3)s1)CC2`, the EC50 is 640 nM. Turning to `O=C(Nc1nc2ccccc2s1)c1cccc2c1CN(c1nc(C(=O)O)c(CCCCOc3ccc(-n4ncc5cncnc54)cc3)s1)CC2`, the EC50 was > 5000 nM. For the compound `O=C(Nc1nc2ccccc2s1)c1cccc2c1CN(c1nc(C(=O)O)c(CCCOc3ccc(-n4ncc5cncnc54)cc3)s1)CC2`, the EC50 was determined as 60 nM. In the case of `O=C(Nc1nc2ccccc2s1)c1cccc2c1CN(c1nc(C(=O)O)c(CCOc3ccc(-n4ncc5cncnc54)cc3)s1)CC2` it was > 5000 nM.

The values are drawn from BindingDB's records for doi:10.1021/ml5001867 (Abbvie, 2014).
